In ChEMBL document CHEMBL4811319, “Optimization of 1,4-bis(arylsulfonamido)naphthalene-N,N'-diacetic acids as inhibitors of Keap1-Nrf2 protein-protein interaction to suppress neuroinflammation” (Bioorg Med Chem, 2021):
Values belong to the compound of their own block, whether it stands above or below them. The source made the active and inactive calls. The rule behind the calls is not given here.

How the values were obtained:
Keap1/Nrf2 [1] = target: T1, Keap1/Nrf2 (Homo sapiens, UniProt Q14145); experiment: Inhibition of recombinant human KEAP1 Kelch domain (321 to 609 residues) expressed in Escherichia coli BL21 (DE3)pLysS cells interaction with FITC-9mer Nrf2 (unknown origin) incubated for 30 mins under shaking condition by fluorescence polarization assay
[2] = target: T2, Nuclear factor erythroid 2-related factor 2 (Mus musculus) (UniProt Q60795); experiment: Activation of Nrf2 in mouse BV-2 cells assessed as increase in HO-1 mRNA level at 10 uM measured within 6 hrs by qRT-PCR analysis relative to negative control; format: cell-based; details: time hrs <6
T2 sequence (whole entry): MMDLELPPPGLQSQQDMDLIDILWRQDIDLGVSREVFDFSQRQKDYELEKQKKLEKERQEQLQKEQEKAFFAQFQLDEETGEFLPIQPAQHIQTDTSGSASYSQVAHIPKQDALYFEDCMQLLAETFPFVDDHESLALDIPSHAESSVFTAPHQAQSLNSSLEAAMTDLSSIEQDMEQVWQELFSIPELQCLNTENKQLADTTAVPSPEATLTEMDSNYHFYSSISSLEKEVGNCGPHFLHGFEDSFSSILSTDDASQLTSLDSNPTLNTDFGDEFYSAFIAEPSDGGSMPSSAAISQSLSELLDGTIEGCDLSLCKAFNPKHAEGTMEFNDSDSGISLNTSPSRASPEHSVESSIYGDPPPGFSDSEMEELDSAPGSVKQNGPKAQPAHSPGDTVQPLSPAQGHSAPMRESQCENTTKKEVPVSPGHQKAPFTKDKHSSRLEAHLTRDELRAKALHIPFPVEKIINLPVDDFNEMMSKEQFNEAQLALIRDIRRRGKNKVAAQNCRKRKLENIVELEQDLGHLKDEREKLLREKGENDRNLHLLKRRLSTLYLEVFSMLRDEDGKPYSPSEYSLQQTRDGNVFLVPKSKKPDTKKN

[3] = target: T2, Nuclear factor erythroid 2-related factor 2 (Mus musculus); experiment: Activation of Nrf2 in mouse BV-2 cells assessed as increase in HO-1 mRNA level at 10 uM measured after 24 hrs by qRT-PCR analysis relative to control; format: cell-based; details: filed as activator
HepG2 = experiment: Cytotoxicity against human HepG2 cells up to 50 uM by Alamar blue assay; format: cell-based
BV-2 [4] = experiment: Cytotoxicity against mouse BV-2 cells up to 50 uM by Alamar blue assay; format: cell-based
Keap1/Nrf2 [5] = target: T1, Keap1/Nrf2; experiment: Inhibition of recombinant human KEAP1 Kelch domain (321 to 609 residues) expressed in Escherichia coli BL21 (DE3)pLysS cells interaction with FITC-9mer Nrf2 (unknown origin) incubated for 30 mins under shaking condition by TR-FRET assay
[6] = target: T2, Nuclear factor erythroid 2-related factor 2 (Mus musculus); experiment: Activation of Nrf2 in mouse BV-2 cells assessed as upregulation of HO-1 protein expression at 20 uM measured after 24 hrs by Western blot analysis; format: cell-based; details: filed as activator
[7] = target: T2, Nuclear factor erythroid 2-related factor 2 (Mus musculus); experiment: Activation of Nrf2 in mouse BV-2 cells assessed as upregulation of NQO-1 protein expression at 20 uM measured after 24 hrs by Western blot analysis; format: cell-based; details: filed as activator
[8] = target: Keap1/Nrf2 (Homo sapiens) (UniProt Q16236+Q14145); experiment: Inhibition of Keap1-Nrf2 protein-protein interaction in human HepG2-ARE-C8 cells assessed as Nrf2 activation mediated ARE-driven luciferase activity by measuring fold change at 10 uM measured after 24 hrs by luciferase reporter gene assay; format: cell-based
[9] = target: T2, Nuclear factor erythroid 2-related factor 2 (Mus musculus); experiment: Activation of Nrf2 in mouse BV-2 cells assessed as increase in NQO-1 mRNA level at 10 uM measured after 6 hrs by qRT-PCR analysis relative to control; format: cell-based; details: filed as activator
[10] = target: T2, Nuclear factor erythroid 2-related factor 2 (Mus musculus); experiment: Activation of Nrf2 in mouse BV-2 cells assessed as increase in NQO-1 mRNA level at 10 uM measured after 24 hrs by qRT-PCR analysis relative to control; format: cell-based; details: filed as activator
[11] = target: T2, Nuclear factor erythroid 2-related factor 2 (Mus musculus); experiment: Activation of Nrf2 in mouse BV-2 cells assessed as increase in HO-1 mRNA level at 1 to 10 uM measured up to 24 hrs by qRT-PCR analysis relative to control; format: cell-based
[12] = target: T2, Nuclear factor erythroid 2-related factor 2 (Mus musculus); experiment: Activation of Nrf2 in mouse BV-2 cells assessed as increase in NQO-1 mRNA level measured after 6 to 24 hrs by qRT-PCR analysis; format: cell-based; details: filed as activator, dose 1-10 µM, time 6-24 hrs
[13] = target: T2, Nuclear factor erythroid 2-related factor 2 (Mus musculus); experiment: Activation of Nrf2 in mouse BV-2 cells assessed as increase in NQO-1 mRNA level at 1 to 10 uM by qRT-PCR analysis; format: cell-based; details: filed as activator, dose 1-10 µM, time 6-24 hrs
[14] = target: T2, Nuclear factor erythroid 2-related factor 2 (Mus musculus); experiment: Activation of Nrf2 in mouse BV-2 cells assessed as upregulation of HO-1 protein expression at 10 uM measured after 24 hrs by Western blot analysis relative to control; format: cell-based; details: filed as activator
[15] = target: T2, Nuclear factor erythroid 2-related factor 2 (Mus musculus); experiment: Activation of Nrf2 in mouse BV-2 cells assessed as upregulation of NQO-1 protein expression at 10 uM measured after 24 hrs by Western blot analysis relative to control; format: cell-based; details: filed as activator
[16] = target: T2, Nuclear factor erythroid 2-related factor 2 (Mus musculus); experiment: Activation of Nrf2 in mouse BV-2 cells assessed as upregulation of HO-1 protein expression measured after 24 hrs by Western blot analysis; format: cell-based; details: filed as activator
[17] = target: T2, Nuclear factor erythroid 2-related factor 2 (Mus musculus); experiment: Activation of Nrf2 in mouse BV-2 cells assessed as upregulation of NQO-1 protein expression measured after 24 hrs by Western blot analysis; format: cell-based; details: filed as activator
[18] = target: T2, Nuclear factor erythroid 2-related factor 2 (Mus musculus); experiment: Activation of Nrf2 in mouse BV-2 cells assessed as increase in translocation of Nrf2 into nucleus at 10 uM measured after 6 to 24 hrs by […]; format: cell-based; details: filed as activator, time 6-24 hrs
[19] = target: T2, Nuclear factor erythroid 2-related factor 2 (Mus musculus); experiment: Activation of Nrf2 in mouse BV-2 cells assessed as increase in DNA binding activity at 10 uM measured after 6 hrs by spectrophotometric analysis relative to control; format: cell-based; details: filed as activator
[20] = target: T2, Nuclear factor erythroid 2-related factor 2 (Mus musculus); experiment: Activation of Nrf2 in mouse BV-2 cells assessed as increase in DNA binding activity at 10 uM measured after 24 hrs by spectrophotometric analysis relative to control; format: cell-based; details: filed as activator
BV-2 [21] = experiment: Upregulation of HO-1 in mouse BV-2 cells transfected with Nrf2 shRNA at 10 uM measured after 24 hrs by qPCR analysis; format: functional, cell-based
BV-2 [22] = experiment: Upregulation of NQO-1 in mouse BV-2 cells transfected with Nrf2 shRNA at 10 uM measured after 24 hrs by qPCR analysis; format: functional, cell-based
BV-2 [23] = experiment: Antiinflammatory activity in mouse BV-2 cells assessed as suppression of LPS-induced […] mRNA expression at 10 uM measured up to 24 hrs by qRT-PCR analysis; format: functional, cell-based
BV-2 [24] = experiment: Antiinflammatory activity in mouse BV-2 cells assessed as suppression of LPS-induced […] protein expression at 10 uM measured up to 24 hrs by ELISA; format: functional, cell-based
BV-2 [25] = experiment: Antiinflammatory activity in mouse BV-2 cells assessed as suppression of LPS-induced IL-6 mRNA expression at 10 uM measured up to 24 hrs by qRT-PCR analysis; format: functional, cell-based
BV-2 [26] = experiment: Antiinflammatory activity in mouse BV-2 cells assessed as suppression of LPS-induced IL-6 protein expression at 10 uM measured up to 24 hrs by ELISA; format: functional, cell-based
BV-2 [27] = experiment: Antiinflammatory activity in mouse BV-2 cells assessed as suppression of LPS-induced TNF-alpha mRNA expression at 10 uM measured up to 24 hrs by qRT-PCR analysis; format: functional, cell-based
BV-2 [28] = experiment: Antiinflammatory activity in mouse BV-2 cells assessed as suppression of LPS-induced TNF-alpha protein expression at 10 uM measured up to 24 hrs by ELISA; format: functional, cell-based

T1 sequence (Q16236 whole entry, the tested form may be a part): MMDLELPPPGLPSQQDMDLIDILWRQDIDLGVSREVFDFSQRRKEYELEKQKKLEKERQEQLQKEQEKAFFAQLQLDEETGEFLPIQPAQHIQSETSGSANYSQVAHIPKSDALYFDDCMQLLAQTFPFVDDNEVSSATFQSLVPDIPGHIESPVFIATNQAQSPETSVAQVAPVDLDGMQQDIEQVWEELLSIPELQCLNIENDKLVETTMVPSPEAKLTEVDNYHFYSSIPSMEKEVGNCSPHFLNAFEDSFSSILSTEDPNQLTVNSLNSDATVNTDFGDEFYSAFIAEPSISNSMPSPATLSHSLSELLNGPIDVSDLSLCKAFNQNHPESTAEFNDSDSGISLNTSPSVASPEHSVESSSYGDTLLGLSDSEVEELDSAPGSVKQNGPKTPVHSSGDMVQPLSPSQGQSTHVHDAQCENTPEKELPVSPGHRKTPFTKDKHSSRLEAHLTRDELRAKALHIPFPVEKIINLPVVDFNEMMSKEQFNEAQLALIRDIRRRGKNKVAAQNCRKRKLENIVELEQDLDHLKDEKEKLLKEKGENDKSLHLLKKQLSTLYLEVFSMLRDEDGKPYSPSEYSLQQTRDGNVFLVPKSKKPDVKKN
T1 sequence (Q14145 whole entry, the tested form may be a part): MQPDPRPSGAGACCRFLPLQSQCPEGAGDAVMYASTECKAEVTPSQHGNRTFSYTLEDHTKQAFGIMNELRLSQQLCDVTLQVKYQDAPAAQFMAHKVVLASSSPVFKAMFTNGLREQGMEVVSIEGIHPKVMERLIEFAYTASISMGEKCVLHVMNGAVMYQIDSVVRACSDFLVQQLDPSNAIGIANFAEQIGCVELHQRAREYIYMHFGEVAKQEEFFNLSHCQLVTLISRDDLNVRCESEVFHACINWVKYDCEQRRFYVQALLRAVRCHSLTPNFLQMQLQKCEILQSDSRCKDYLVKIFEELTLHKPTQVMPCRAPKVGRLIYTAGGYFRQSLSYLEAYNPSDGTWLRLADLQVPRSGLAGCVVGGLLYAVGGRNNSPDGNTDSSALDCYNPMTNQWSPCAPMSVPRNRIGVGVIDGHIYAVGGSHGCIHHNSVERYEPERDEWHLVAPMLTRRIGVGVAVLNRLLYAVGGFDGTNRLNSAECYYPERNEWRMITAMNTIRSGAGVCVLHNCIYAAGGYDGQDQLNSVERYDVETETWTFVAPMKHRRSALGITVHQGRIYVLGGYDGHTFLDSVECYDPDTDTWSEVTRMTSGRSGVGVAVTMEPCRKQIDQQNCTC
Chain of Keap1/Nrf2 (Homo sapiens) (Q14145 whole entry, looked up): as the sequence (Q14145 whole entry, the tested form may be a part) above
Chain of Keap1/Nrf2 (Homo sapiens) (Q16236 whole entry, looked up): as the sequence (Q16236 whole entry, the tested form may be a part) above

SMILES: COc1ccc(S(=O)(=O)N(CC(=O)O)c2ccc(N(CC(=O)O)S(=O)(=O)c3ccc(OC)cc3Br)c3ccccc23)c(Br)c1
IC50 (Keap1/Nrf2 [1]): 184 nM

SMILES: O=C(O)CN(c1ccc(N(CC(=O)O)S(=O)(=O)c2ccc3c(c2)CCO3)c2ccccc12)S(=O)(=O)c1ccc2c(c1)CCO2
IC50 (Keap1/Nrf2 [1]): 164 nM
fold change (FC) [2]: < 2
fold change (FC) [3]: 4
Activity (HepG2): Non-Toxic
Activity (BV-2 [4]): Non-Toxic

SMILES: O=C(O)CN(c1ccc(N(CC(=O)O)S(=O)(=O)c2ccc3c(c2)OCCO3)c2ccccc12)S(=O)(=O)c1ccc2c(c1)OCCO2
IC50 (Keap1/Nrf2 [1]): 120 nM
IC50 (Keap1/Nrf2 [5]): 31.3 nM
fold change (FC) [2]: < 2
Activity (HepG2): Non-Toxic
Activity (BV-2 [4]): Non-Toxic

SMILES: COc1ccc(S(=O)(=O)N(Cc2nnn[nH]2)c2ccc(N(Cc3nnn[nH]3)S(=O)(=O)c3ccc(OC)cc3)c3ccccc23)cc1
IC50 (Keap1/Nrf2 [1]): 96.7 nM
IC50 (Keap1/Nrf2 [5]): 10.8 nM

SMILES: CN(C)C=O
Activity [6]: Active
Activity [7]: Active

SMILES: O=C(O)CN(c1ccc(N(CC(=O)O)S(=O)(=O)c2ccc3c(c2)OCO3)c2ccccc12)S(=O)(=O)c1ccc2c(c1)OCO2
fold change (FC) [8]: > 2
IC50 (Keap1/Nrf2 [1]): 149 nM
fold change (FC) [2]: < 2
Activity (HepG2): Non-Toxic
Activity (BV-2 [4]): Non-Toxic

SMILES: O=C(O)CN(c1ccc(N(CC(=O)O)S(=O)(=O)c2ccc(NC(=O)C(F)(F)F)cc2)c2ccccc12)S(=O)(=O)c1ccc(NC(=O)C(F)(F)F)cc1
IC50 (Keap1/Nrf2 [1]): 126 nM

SMILES: O=C(O)CN(c1ccc(N(CC(=O)O)S(=O)(=O)c2cc3c(cc2Cl)OCCO3)c2ccccc12)S(=O)(=O)c1cc2c(cc1Cl)OCCO2
fold change (FC) [8]: > 2
IC50 (Keap1/Nrf2 [1]): 144 nM
IC50 (Keap1/Nrf2 [5]): 8.9 nM
fold change (FC) [2]: < 2
fold change (FC) [9]: 3
fold change (FC) [10]: 18
fold change (FC) [11]: < 2
Activity [12]: Dose-Dependent Effect
Activity [13]: Tde
fold change (FC) [14]: 2
fold change (FC) [15]: 3
Activity [16]: Dose-Dependent Effect
Activity [17]: Dose-Dependent Effect
Activity (HepG2): Non-Toxic
Activity (BV-2 [4]): Non-Toxic
Activity [18]: Active
fold change (FC) [19]: 3
fold change (FC) [20]: 3
Activity (BV-2 [21]): inactive
Activity (BV-2 [22]): inactive
Activity (BV-2 [23]): Active
Activity (BV-2 [24]): Active
Activity (BV-2 [25]): Active
Activity (BV-2 [26]): Active
Activity (BV-2 [27]): Active
Activity (BV-2 [28]): Active

SMILES: O=C(O)CN(c1ccc(N(CC(=O)O)S(=O)(=O)c2ccc3c(c2)CCCO3)c2ccccc12)S(=O)(=O)c1ccc2c(c1)CCCO2
IC50 (Keap1/Nrf2 [1]): 146 nM
fold change (FC) [2]: < 2
fold change (FC) [9]: 4
Activity (HepG2): Non-Toxic
Activity (BV-2 [4]): Non-Toxic

Further compounds by falling IC50 (Keap1/Nrf2 [1]), results first:

IC50 (Keap1/Nrf2 [1]): 384 nM
SMILES: O=C(O)CN(c1ccc(N(CC(=O)O)S(=O)(=O)c2ccc(C(F)(F)F)cc2)c2ccccc12)S(=O)(=O)c1ccc(C(F)(F)F)cc1

IC50 (Keap1/Nrf2 [1]): 302 nM
SMILES: O=S(=O)(c1ccc(C(F)(F)F)cc1)N(Cc1nnn[nH]1)c1ccc(N(Cc2nnn[nH]2)S(=O)(=O)c2ccc(C(F)(F)F)cc2)c2ccccc12

IC50 (Keap1/Nrf2 [1]): 235 nM
SMILES: O=C(O)CN(c1ccc(N(CC(=O)O)S(=O)(=O)c2ccc(Br)cc2)c2ccccc12)S(=O)(=O)c1ccc(Br)cc1

IC50 (Keap1/Nrf2 [1]): 194 nM
SMILES: CS(=O)(=O)Nc1ccc(S(=O)(=O)N(CC(=O)O)c2ccc(N(CC(=O)O)S(=O)(=O)c3ccc(NS(C)(=O)=O)cc3)c3ccccc23)cc1

IC50 (Keap1/Nrf2 [1]): 93.5 nM
IC50 (Keap1/Nrf2 [5]): 7.2 nM
fold change (FC) [2]: < 2
SMILES: O=S(=O)(c1ccc2c(c1)OCCO2)N(Cc1nnn[nH]1)c1ccc(N(Cc2nnn[nH]2)S(=O)(=O)c2ccc3c(c2)OCCO3)c2ccccc12
Activity (HepG2): Non-Toxic
Activity (BV-2 [4]): Non-Toxic

IC50 (Keap1/Nrf2 [1]): 82 nM
IC50 (Keap1/Nrf2 [5]): 11.5 nM
SMILES: O=C(O)CN(c1ccc(N(CC(=O)O)S(=O)(=O)c2ccc(N3C(=O)c4ccccc4C3=O)cc2)c2ccccc12)S(=O)(=O)c1ccc(N2C(=O)c3ccccc3C2=O)cc1
